Data set [1] concerns PC-3 (prostate adenocarcinoma). Conditions: literature value, same experimental conditions; cited from earlier work.
In data set [2] the test system is HT-29 (colorectal adenocarcinoma). Also on record: method as in PMID 25412045. Conditions: literature value, same experimental conditions; cited from earlier work.
Data set [3] concerns MCF-10 control cells (normal breast epithelium). The note with it: literature value; cited from earlier work.
The subject of data set [4] is HT-29 (colorectal adenocarcinoma). As to the kind of experiment: Sulforhodamine B in vitro growth inhibition assay, HT-29. Type of data set: cell-based, human. The note with it: for Selectivity Index (SI) MCF-10/HT-29: IC50 in non-cancerogenic cell line / IC50 in cancer cell line; for IC50: Homo sapiens, HT-29, sulforhodamine B assay, 72 h of treatment, IC50 ± SD. The protocol:
(§1) For this purpose, a colorimetric sulforhodamine B assay was performed to quantify the cytotoxic effect through their respective IC50 values. Each compound’s serial dilutions (12.5, 25, 50, and 100 µM) were evaluated in triplicate. In our study, the human cancer cell lines used were MCF-7 (breast adenocarcinoma); HT-29 (colorectal adenocarcinoma); PC-3 (prostate adenocarcinoma); and MCF-10 control cells (normal breast epithelium). For comparative purposes, the literature IC50 values of daunorubicin and 5-fluorouracil (5-FU), measured in the same cell lines and under the same experimental conditions, were included. Similarly, drimenol (1) was included for comparative purposes.
(§2) The sulforhodamine B assay was used. Briefly, the cells were set up at 5 × 10^3 cells per well of a 96-well microplate for 18 h. Cells were incubated at 37 °C in a humidified 5% CO2/95% air mixture and treated with the compounds at different concentrations for 72 h. At the end of drug exposure, cells were fixed with 50% trichloroacetic acid at 4 °C. After washing with distilled water, cells were stained with 0.1% sulforhodamine B, dissolved in 1% acetic acid (50 μL/well) for 30 min, and, subsequently, washed with 1% acetic acid to remove the unbound stain. The protein-bound stain was solubilized with 100 μL of 10 mM unbuffered Tris base, and the cell density was determined using a […] (wavelength 540 nm). Results are expressed as IC50 values (μM) ± SD.

The subject of data set [5] is MCF-7 (breast adenocarcinoma). As to the kind of experiment: Sulforhodamine B in vitro growth inhibition assay, MCF-7. Type of data set: cell-based, human. The note with it: for Selectivity Index (SI) MCF-10/MCF-7: IC50 in non-cancerogenic cell line / IC50 in cancer cell line; for IC50: Homo sapiens, MCF7, sulforhodamine B assay, 72 h of treatment, IC50 ± SD. The protocol:
as §1, §2
(In SRB staining, fixed cells bind dye roughly in proportion to their protein.)

The subject of data set [6] is PC-3 (prostate adenocarcinoma). As to the kind of experiment: Sulforhodamine B in vitro growth inhibition assay, PC-3. Type of data set: cell-based, human. The note with it: for Selectivity Index (SI) MCF-10/PC-3: IC50 in non-cancerogenic cell line / IC50 in cancer cell line; for IC50: Homo sapiens, sulforhodamine B assay, 72 h of treatment, IC50 ± SD. The protocol:
as §1, §2

Data set [7] relates to MCF-7 (breast adenocarcinoma). Conditions: cited from earlier work; for IC50: literature value, same experimental conditions.
The test system of data set [8] is MCF-10 control cells (normal breast epithelium). Put plainly: Sulforhodamine B in vitro growth inhibition assay, MCF-10 control cells. Type of data set: cell-based. Conditions: Homo sapiens, MCF10, 72 h of treatment, IC50 ± SD, non-tumoral cells. The protocol: as §1, §2
Data set [9] deals with caspases 3 and 7 on MCF-7 cells. Put plainly: Caspase-Glo 3/7 assay. Type of data set: cell-based, human. Conditions: 50 μM, 24 h. The protocol: To determine the cell death type induced by the most promising aryl-drimane esters, we evaluated their capacity to induce apoptosis through the activation of caspases 3 and 7 on MCF-7 cells. For this purpose, 6a, 6e, 6f, 8c, 8f, and 8g were incubated for 24 h on MCF-7 cells at a concentration of 50 μM, close to the IC50 values for cytotoxicity in most compounds. […] In summary, these drimane derivatives induced apoptosis in the MCF-7 cell line, showing a potential antitumoral effect.
The activity of caspase 3/7 in treated MCF-7 cells was determined using a Caspase-Glo-3/7 Assay kit (Promega, UK—Cat. No G8090). The caspase-Glo 3/7 assay is a homogenous, luminescent assay that measures caspase-3 and -7 activities, both key-players in apoptosis. […] Luminescence was proportional to the amount of caspase present. MCF-7 cells (1 × 10^4 cells per well) were grown in a 96-well white plate and were allowed to adhere overnight. The cells were then treated for 24 h with the synthesized compounds (50 µM), with the inclusion of a blank as a control. After treatment, the Caspase-Glo® 3/7 was prepared according to the manufacturer’s guidelines. Briefly, 100 μL of Caspase-Glo 3/7 reagent was added to 100 μL of culture medium containing the cells previously treated in each well. The content was mixed gently by placing the plate on a shaker for 30 s, and the plate was incubated at room temperature in the dark for 1 h before luminescence was read on a luminometer (Berthold Sirius Single Tube Luminometer, Pforzheim, Germany). Fold change in caspase activity was obtained by first subtracting the luminescence value for the blank well from every other value, and then, expressing the average luminescence of each treatment as a fold change with respect to the average luminescence of the negative control.

Like-named read-outs stand apart in the source and are kept apart here.

By IC50 is commonly meant the midpoint of a concentration-inhibition curve. For `O=c1[nH]cc(F)c(=O)[nH]1` [5-FU, 5-fluorouracil], the IC50 in data set [1] is 16.4 ± 0.6 µM; in [2], 2.9 ± 0.7 µM; in data set [3] it was below 0.5 µM; in data set [7] it was 22.3 ± 0.2 µM. Further, the “Selectivity Index (SI) MCF-10/HT-29” value in data set [4] is given as 0.2. Besides, the “Selectivity Index (SI) MCF-10/MCF-7” value in [5] turned out to be 0.02. Moreover, in data set [6], the “Selectivity Index (SI) MCF-10/PC-3” value is 0.03.

`COc1cc(C)cc(OC(=O)C2=C(C)CCC3C(C)(C)CCC[C@]23C)c1` (stereo partly drawn) [6b, 3-Methoxy-5-methylphenyl-(8aS)-2,5,5,8a-tetramethyl-3,4,4a,5,6,7,8,8a-octahydronaphthalene-1-carboxylate]: the IC50 in data set [4] is above 100 µM; in [8], 67.2 ± 15.3 µM; in data set [5], above 100 µM; in [6] it was above 100 µM.

Usually melting point stands for the temperature, or range, at which the solid turns liquid. `COC(=O)c1c(C)cc(OC(=O)C2=C(C)CCC3C(C)(C)CCC[C@]23C)cc1O` (stereo partly drawn) [6c, 3-Hydroxy-4-(methoxycarbonyl)-5-methylphenyl-(8aS)-2,5,5,8a-tetramethyl-3,4,4a,5,6,7,8,8a-octahydronaphthalene-1-carboxylate] showed a melting point of 124 °C. The compound further registered an IC50 in data set [4] above 100 µM. The compound also yielded an IC50 in data set [8] above 100 µM. For the same compound, the IC50 in data set [5] was above 100 µM. This compound gave an IC50 in data set [6] above 100 µM.

The compound `COC(=O)c1c(C)cc(OC(=O)C2=C(C)CCC3C(C)(C)CCC[C@]23C)c(C)c1O` (stereo partly drawn) [6d, 3-Hydroxy-4-(methoxycarbonyl)-2,5-dimethylphenyl-(8aS)-2,5,5,8a-tetramethyl-3,4,4a,5,6,7,8,8a-octahydronaphthalene-1-carboxylate] came in with a melting point of 128 °C. The compound also came in with an IC50 in [4] above 100 µM. Besides, the IC50 in data set [8] is above 100 µM. Also, in data set [5], the IC50 was above 100 µM. This compound returned an IC50 in data set [6] above 100 µM.

`COc1cc(OC(=O)C2=C(C)CCC3C(C)(C)CCC[C@]23C)ccc1C=O` (stereo partly drawn) [6e, 4-Formyl-3-methoxyphenyl-(8aS)-2,5,5,8a-tetramethyl-3,4,4a,5,6,7,8,8a-octahydronaphthalene-1-carboxylate]: the IC50 was 38.1 ± 2 µM in data set [4], 50 ± 8.9 µM in data set [8], 38.3 ± 2.6 µM in data set [5] and 52.9 ± 8.2 µM in data set [6]. Besides, the “Selectivity Index (SI) MCF-10/HT-29” value in data set [4] is on record as 1.3. The “Selectivity Index (SI) MCF-10/MCF-7” value in data set [5] is recorded as 1.3. Further, the “Selectivity Index (SI) MCF-10/PC-3” value in data set [6] was 0.9. For the same compound, the “caspases-3/7 activity over the control” value in [9] was “two-fold”.

For the compound `COc1cc(C=O)ccc1OC(=O)C1=C(C)CCC2C(C)(C)CCC[C@]12C` (stereo partly drawn) [6f, 4-Formyl-2-methoxyphenyl-(8aS)-2,5,5,8a-tetramethyl-3,4,4a,5,6,7,8,8a-octahydronaphthalene-1-carboxylate], in data set [4], inhibition was half-maximal at 58 ± 3.9 µM (IC50) and the “Selectivity Index (SI) MCF-10/HT-29” value is on record as 0.3. This compound returned an IC50 in data set [8] of 16.5 ± 0.9 µM. Moreover, in data set [5], the IC50 was 22.4 ± 1 µM and the “Selectivity Index (SI) MCF-10/MCF-7” value came out at 0.7. In addition, in data set [6], the IC50 is 30.9 ± 2.5 µM and the “Selectivity Index (SI) MCF-10/PC-3” value is reported as 0.5. Also, the “caspases-3/7 activity over the control” value in [9] is “two-fold”.

For the compound `COc1cc(OC)cc(C(=O)OC[C@H]2C(C)=CCC3C(C)(C)CCC[C@@]32C)c1` (stereo partly drawn) [8a, ((1S,8aS)-2,5,5,8a-tetramethyl-1,4,4a,5,6,7,8,8a-octahydronaphthalen-1-yl)methyl-3,5-dimethoxybenzoate], the IC50 in [4] was above 100 µM; in data set [8], 44.8 ± 3.1 µM; in [5], above 100 µM; in data set [6], above 100 µM.

`COc1cc(C(=O)OC[C@H]2C(C)=CCC3C(C)(C)CCC[C@@]32C)cc(OC)c1C` (stereo partly drawn) [8b, ((1S,8aS)-2,5,5,8a-tetramethyl-1,4,4a,5,6,7,8,8a-octahydronaphthalen-1-yl)methyl 3,5-dimethoxy-4-methylbenzoate]: the IC50 is above 100 µM in [4], 21.2 ± 3.1 µM in data set [8], above 100 µM in data set [5] and above 100 µM in data set [6].

Regarding `CC1=CCC2C(C)(C)CCC[C@]2(C)[C@H]1COC(=O)c1cc(O)c(C)c(O)c1` (stereo partly drawn) [8c, ((1S,8aS)-2,5,5,8a-tetramethyl-1,4,4a,5,6,7,8,8a-octahydronaphthalen-1-yl)methyl-3,5-dihydroxy-4-methylbenzoate], the IC50 in data set [4] was above 100 µM; in data set [8], above 100 µM; in [5] it was 35.9 ± 6.4 µM; in data set [6] it was above 100 µM. The “caspases-3/7 activity over the control” value in data set [9] is listed as “two-fold”.

In the case of `COc1cc(C(=O)OC[C@H]2C(C)=CCC3C(C)(C)CCC[C@@]32C)cc(OC)c1O` (stereo partly drawn) [8d, ((1S,8aS)-2,5,5,8a-tetramethyl-1,4,4a,5,6,7,8,8a-octahydronaphthalen-1-yl)methyl-4-hydroxy-3,5-dimethoxybenzoate], the melting point is 105 °C. For the same compound, in [4], half-maximal inhibition (IC50) required 44.7 ± 6.7 µM and the “Selectivity Index (SI) MCF-10/HT-29” value stood at 0.4. This compound also yielded an IC50 in data set [8] of 16.5 ± 0.5 µM. In data set [5], the IC50 came to 18.4 ± 0.5 µM and the “Selectivity Index (SI) MCF-10/MCF-7” value is 0.9. Moreover, in data set [6], half-maximal inhibition (IC50) was put at 33.3 ± 2.9 µM and the “Selectivity Index (SI) MCF-10/PC-3” value came to 0.5.

For the compound `COc1cc(C(=O)OC[C@H]2C(C)=CCC3C(C)(C)CCC[C@@]32C)cc(OC)c1OC` (stereo partly drawn) [8e, ((1S,8aS)-2,5,5,8a-tetramethyl-1,4,4a,5,6,7,8,8a-octahydronaphthalen-1-yl)methyl-3,4,5-trimethoxybenzoate], in data set [4], the IC50 amounted to 51.5 ± 3.2 µM and the “Selectivity Index (SI) MCF-10/HT-29” value amounted to 0.6. This compound also showed an IC50 in data set [8] of 32.1 ± 8.3 µM. In addition, in data set [5], the IC50 was 51 ± 10 µM and the “Selectivity Index (SI) MCF-10/MCF-7” value amounted to 0.6. For the same compound, in data set [6], the IC50 was 76.9 ± 10.2 µM and the “Selectivity Index (SI) MCF-10/PC-3” value was determined as 0.4.

For the compound `COc1ccc(C(=O)OC[C@H]2C(C)=CCC3C(C)(C)CCC[C@@]32C)c(OC)c1OC` (stereo partly drawn) [8f, ((1S,8aS)-2,5,5,8a-tetramethyl-1,4,4a,5,6,7,8,8a-octahydronaphthalen-1-yl)methyl-2,3,4-trimethoxybenzoate], the IC50 in data set [4] came to 26.2 ± 5.4 µM; in [8] it was 6.8 ± 0.9 µM; in data set [5], 6.2 ± 0.5 µM; in data set [6], 7.1 ± 1.1 µM. In addition, the “caspases-3/7 activity over the control” value in [9] was 3.5 fold.

Take `COc1cc(OC)c(C(=O)OC[C@H]2C(C)=CCC3C(C)(C)CCC[C@@]32C)cc1OC` (stereo partly drawn) [8g, ((1S,8aS)-2,5,5,8a-tetramethyl-1,4,4a,5,6,7,8,8a-octahydronaphthalen-1-yl)methyl-2,4,5-trimethoxybenzoate]: in [4], inhibition was half-maximal at 31.3 ± 2 µM (IC50) and the “Selectivity Index (SI) MCF-10/HT-29” value was determined as 0.5. This compound also gave a 50% inhibitory concentration (IC50) in [8] of 16.3 ± 0.6 µM. In addition, in data set [5], it took 28.7 ± 3.5 µM to reach half-maximal inhibition (IC50) and the “Selectivity Index (SI) MCF-10/MCF-7” value came out at 0.6. Further, in data set [6], the IC50 was determined as 27.7 ± 2.6 µM and the “Selectivity Index (SI) MCF-10/PC-3” value is given as 0.6. In [9], the “caspases-3/7 activity over the control” value turned out to be 3.5 fold.

In the case of `CC1=CCC2C(C)(C)CCCC2(C)C1CO` (stereo not drawn) [Drimenol], the 50% inhibitory concentration (IC50) in [1] and in data set [7] was above 100 µM each time. Further, the “cytotoxicity” value in [7] (two cell lines, ref Montenegro et al.) was “inactive”.
